Reference: patent publication US8735152B2, “Methods for inducing cell death in pluripotent stem cells and differentiated cells other than cardiac myocytes” (Daiichi Sankyo Company, Limited, priority 2009, dated 2014)

Key:
Type in all cases: cell-based
[1] = system: mouse embryonic stem cell-derived cardiomyocytes, residual undifferentiated embryonic stem cells and other cells; assay: Mannitol treatment of culture system containing both embryonic stem cell-derived cardiomyocytes and residual embryonic stem cells; conditions: 0.45 M, 36 hours
Procedure: Mouse derived embryonic stem cells were treated by the method of Example 1 to form embryoid bodies, which were differentiated to a stage containing the programmed cardiomyocytes (precardiac mesoderms). Thus obtained embryoid bodies were treated with digestive enzymes (trypsin and collagenase) meticulously to ensure that no cell damage would be caused and the resulting partially dispersed embryoid bodies were subjected to another adherent culture. Upon a 5-day continued culture, populations of cardiomyocytes pulsating autonomously (the cell populations circled by the red lines), cell populations having the traits of embryonic stem cells-like cells (the cell populations circled by the yellow lines), and other cell populations were observed together (see FIG. 2(a)). In the next step, the culture medium for the mixed culture was replaced by a serum-free α-MEM culture medium containing mannitol in 0.45 M (approximately equivalent to 720 mOsm/kg) and ITS {insulin (10 mg/L), transferrin (5.5 mg/L), and sodium selenite ([…])} (GIBCO) and culture was performed for 36 hours. […] Subsequently, the culture medium was replaced by an α-MEM culture medium supplemented with 20% fetal calf serum and culture was continued, whereupon the cardiomyocytes restored autonomous pulsation in 1 or 2 days.

[2] = system: mouse embryonic stem cells; assay: Cell death inducing effect on mouse embryonic stem cells (TMRM, FACS); conditions: 0.45 M
Excerpt: The mitochondrial membrane potential is lost in dead cells, so if cells are stained with the mitochondrial membrane potential sensitive reagent TMRM (Molecular Probe) which emits fluorescence upon detecting the membrane potential which is an indicator of survival, the fluorescence signal derived from this reagent is high in live cells but low in dead cells. This feature was used in Example 3; embryonic stem cells cultured by the method of Example 1 were further cultured in an α-MEM culture medium containing 0.45 M mannitol (approximately equivalent to 720 mOsm/kg) and 1 μM TMRM for a period of 0 h (Pre), 3 h, 6 h or 20 h; the cultured embryonic stem cells were harvested, washed and subjected to FACS analysis for checking the state of their survival on the basis of the fluorescence intensity of the mitochondrial membrane potential sensitive reagent TMRM; the results are shown in FIG. 4. In FIG. 4 depicting the results of FACS analysis for 0 h (Pre), 3 h, 6 h, and 20 h, the cells lying above the border line on the dot plots diagrams are live cells and those below the border line are dead cells.

[3] = system: human embryonic stem cell-derived embryoid bodies; assay: Cell death inducing effect on residual stem cells in human embryonic stem cell-derived embryoid bodies and enrichment of cardiomyocytes; conditions: 0.45 M, 2 hours
Procedure: After passaging, human embryonic stem cells were subjected to suspension culture in a culture medium [α-MEM (minimum essential medium) (SIGMA), supplemented with 10% FBS (EQUITEC BIO), 100 units/ml penicillin, and 50 μg/ml streptomycin (GIBCO)] to induce formation of embryoid bodies. At 14-18 days after the start of differentiation (the start of suspension culture), autonomously pulsating cells started to differentiate, which was confirmed in a separate step that they were cardiomyocytes.
The embryoid bodies still maintained an autonomously pulsating ability after the passage of 3 months from the start of differentiation. They were partially treated with 0.1% collagenase (Wortington) and 0.1% trypsin (DIFCO) to be dispersed as fine cell masses. The cell masses were divided into two groups; one group was treated with 0.45 M mannitol (approximately equivalent to 720 mOsm/kg) for 2 hours, and the other group (control) was not treated with mannitol but treated with the same amount of a solution having the physiological osmotic pressure, Ads buffer (116.4 mM NaCl, 5.4 mM KCl, 5.6 mM dextrose, 10.9 mM NaH2PO4, 405.7 μM MgSO4, 20 mM Hepes, pH 7.3) for 2 hours. After the treatment, both cell groups were subjected to adherent culture for 3 days in a DMEM solution supplemented with 10% fetal calf serum.
The mannitol-treated cells and the control cells were analyzed in accordance with the experimental procedure of Example 1 using a mouse anti-Oct-3/4 monoclonal antibody (No. 084720 of BD Transduction Laboratories) and a goat anti-Nkx 2.5 antibody (No. N-19 of Santacruz) as primary antibodies, for the expression of the Oct-3/4 protein which was both a marker of embryonic stem cells and an intranuclear transcription factor, and for the expression of the Nkx 2.5 protein which was both a cardiomyocyte marker and an intranuclear transcription factor, respectively. The results for the control group, one of the two divided samples, are shown in FIG. 10 and the results for the test group subjected to 2-hr treatment with mannitol are shown in FIG. 11. The upper panels of FIG. 10 show the results of cardiomyocytes and the lower panels show the results of embryonic stem cells.
The embryoid bodies still maintained an autonomously pulsating ability after the passage of 3 months from the start of differentiation. They were partially treated with 0.1% collagenase (Wortington) and 0.1% trypsin (DIFCO) to be dispersed as fine cell masses. The cell masses were divided into two groups; one group was treated with saccharides (sugar alcohols: sorbitol, xylitol, and glycerol; sugars: sucrose and glucose; betaines: trimethylglycine) for 12 hours in an amount of 0.45 M (approximately equivalent to 700-780 mOsm/kg) or 0.6 M (approximately equivalent to 850-1000 mOsm/kg), and the other group (control) was not treated with those saccharides but treated with the same amount of a solution having the physiological osmotic pressure, Ads buffer (116.4 mM NaCl, 5.4 mM KCl, 5.6 mM dextrose, 10.9 mM NaH2PO4, 405.7 μM MgSO4, 20 mM Hepes, pH 7.3) for 2 hours. After the treatment, both cell groups were cultured for 12 hours in a DMEM solution supplemented with 10% fetal calf serum.
Samples of differentiated cells derived from human embryonic stem cells, as treated with 0.45 M glycerol (approximately equivalent to 710 mOsm/kg) or 0.6 M glycerol (approximately equivalent to 870 mOsm/kg), were examined for their morphology under the culture conditions. […] The cell death inducing effect was noticeable when the cells were exposed to glycerol for 10 hours and longer (FIG. 14).

embryonic stem cells = assay: Study of mannitol concentration and duration of exposure versus cell death of embryonic stem cells; conditions: 1M (substantially saturated concentration)
Excerpt: The present inventors prepared hypertonic solutions containing mannitol dissolved in it at high concentrations and applied those hypertonic solutions to a mixed cell system comprising embryonic stem cells as well as cardiomyocytes and non-cardiomyocytes; they found the fact that upon exposure to the hypertonic solutions, the embryonic stem cells and non-cardiomyocytes were more likely to undergo cell death.

[4] = one week after the treatment, immunohistochemical technique

## OC[C@@H](O)[C@@H](O)[C@H](O)[C@H](O)CO [mannitol]
[1]; then culture in medium with 20% fetal calf serum
  State of cells other than cardiomyocytes (cell death): virtually all cells other than cardiomyocytes were found dead
[1]; immunostaining
  Nkx 2.5 positive cardiomyocytes among the obtained cells: ≥ 98%
[2]; 3-hr treatment
  Cells that had died: approximately 90%
[2]; 6-hr treatment
  Cells that had died: 98%
[2]; 20-hr treatment
  Cells that had died: all cells had been dead
[3]
  Toxicity in cardiomyocytes: does not show significant toxicity in cardiomyocytes
[3]; then 3 days adherent culture
  Autonomously pulsating cells: autonomously pulsating cell populations and autonomously pulsating single cells were found adherent to or suspended in the culture dish
  Colonies of cells assumed to be undifferentiated cells: no such cell populations were found at all
[3]; [4]
  Type of surviving cells (Nkx 2.5): a great majority of the surviving cells were Nkx 2.5 positive cardiomyocytes
  Type of surviving cells (Oct-3/4): Oct-3/3 negative cells were hardly detectable
Embryonic stem cells
  Cell death in embryonic stem cells: induced cell death in embryonic stem cells within a short period of time
